According to patent publication US20200024278A1, “COMPOSITION COMPRISING ANTIBIOTIC COMPOUND AND AN HETEROCYCLIC COMPOUND AND THEIR USE IN PREVENTING OR TREATING BACTERIAL INFECTIONS” (MUTABILIS, priority 2016, published 2020):
Like-named read-outs stand apart in the source and are kept apart here.

Columns and labels:
Experiment in all cases: MIC, broth microdilution (CLSI), substance alone or ATB combined with compound at 4 or 8 μg/mL
SAU 29213 = type: cell-based, S. aureus; settings: Staphylococcus aureus
Method in brief: (§1)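 Growth inhibition endpoint, read visually after 16-20 h at 35° C in ambient air. Cation-adjusted Mueller-Hinton broth, inoculum 5·10^5 CFU/mL, CLSI M7-A7 protocol.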

PAE UFR90 = type: cell-based, P. aeruginosa; settings: Pseudomonas aeruginosa, PAE UFR90
Method in brief: as §1

PAE UFR48 = type: cell-based, P. aeruginosa; settings: Pseudomonas aeruginosa, PAE UFR48
Method in brief: as §1

PAE 105250 = type: cell-based, P. aeruginosa; settings: Pseudomonas aeruginosa, PAE 105250
Method in brief: as §1

ECL P99 = type: cell-based, E. cloacae; settings: Enterobacter cloacae, ECL P99
Method in brief: as §1

KPN BAA-1898 = type: cell-based, K. pneumoniae; settings: Klebsiella pneumoniae, BAA1898, KPN BAA-1898
Method in brief: as §1

KPN 6299 = type: cell-based, K. pneumoniae; settings: Klebsiella pneumoniae, antibiotic alone, read-out: MIC ATB alone
Method in brief: as §1

KPN UFR42 = type: cell-based, K. pneumoniae; settings: Klebsiella pneumoniae; antibiotic alone; KPN UFR42; read-out: MIC ATB alone
Method in brief: as §1

SPN 49619 = type: cell-based, S. pneumoniae; settings: Streptococcus pneumoniae, SPN 49619
Method in brief: as §1

ABA UFR155 = type: cell-based, A. baumannii
Method in brief: as §1

ABA UFR154 = type: cell-based, A. baumannii
Method in brief: as §1

ECO UFR39 = type: cell-based, E. coli; settings: Escherichia coli; antibiotic alone; ECO UFR39; read-out: MIC ATB alone
Method in brief: as §1

ECO 190317 = type: cell-based, E. coli; settings: Escherichia coli; antibiotic alone; ECO 190317; read-out: MIC ATB alone
Method in brief: as §1

[1] = antibiotic alone, read-out: MIC ATB alone
[2] = Acinetobacter baumannii, antibiotic alone, read-out: MIC ATB alone

CO/N=C(\C(=O)N[C@@H]1C(=O)N2C(C(=O)[O-])=C(C[N+]3(C)CCCC3)CS[C@H]12)c1csc(N)n1 [FEP, Cefepime] showed an MIC (SAU 29213; antibiotic alone, SAU 29213, read-out: MIC ATB alone) of 4 µg/mL, an MIC (SAU 29213; substance alone, SAU 29213 (MSSA 29213), read-out: MIC) of 4 µg/mL and an MIC (PAE UFR90; [1]) of 16 µg/mL. The MIC (PAE UFR90; substance alone, read-out: MIC) was 16 µg/mL, the MIC (PAE UFR48; [1]) was 64 µg/mL and the MIC (PAE UFR48; substance alone, read-out: MIC) was 64 µg/mL. The MIC (PAE 105250; [1]) was 8 µg/mL, the MIC (PAE 105250; substance alone, read-out: MIC) was 8 µg/mL and the MIC (ECL P99; [1]) was 2 µg/mL. It also gave an MIC (ECL P99; substance alone, read-out: MIC) of 2 µg/mL, an MIC (KPN BAA-1898; [1]) of 64 µg/mL and an MIC (KPN BAA-1898; substance alone, read-out: MIC) of 64 µg/mL. It also gave an MIC (KPN 6299) of 128 µg/mL, an MIC (KPN UFR42) of 128 µg/mL and an MIC (SPN 49619; [1]) of 0.063 µg/mL. The MIC (SPN 49619; substance alone, read-out: MIC) was 0.063 µg/mL, the MIC (ABA UFR155; [2]) was 128 µg/mL and the “MIC ATB combined with Example 1 @8 μg/ml” value (ABA UFR155; with Example 1 @8 μg/ml) was 64 µg/mL. For the same molecule, the “MIC ATB combined with Example 3 @8 μg/ml” value (ABA UFR155; with Example 3 @8 μg/ml) was 32 µg/mL, the “MIC ATB combined with Example 6 @8 μg/ml” value (ABA UFR155; with Example 6 @8 μg/ml) was 16 µg/mL and the “MIC ATB combined with Example 9 @4 μg/ml” value (ABA UFR155; with Example 9 @4 μg/ml) was 32 µg/mL. The “MIC ATB combined with Example 10 @8 μg/ml” value (ABA UFR155; with Example 10 @8 μg/ml) was 64 µg/mL, the “MIC ATB combined with Example 11 @8 μg/ml” value (ABA UFR155; with Example 11 @8 μg/ml) was 64 µg/mL and the “MIC ATB combined with Example 12 @8 μg/ml” value (ABA UFR155; with Example 12 @8 μg/ml) was 64 µg/mL. The “MIC ATB combined with Example 15 @4 μg/ml” value (ABA UFR155; with Example 15 @4 μg/ml) was 32 µg/mL, the MIC (ABA UFR154; [2]) was 2 µg/mL and the “MIC ATB combined with Example 1 @8 μg/ml” value (ABA UFR154; with Example 1 @8 μg/ml) was 2 µg/mL. For the same molecule, the “MIC ATB combined with Example 3 @8 μg/ml” value (ABA UFR154; with Example 3 @8 μg/ml) was 1 µg/mL, the “MIC ATB combined with Example 6 @8 μg/ml” value (ABA UFR154; with Example 6 @8 μg/ml) was 1 µg/mL and the “MIC ATB combined with Example 9 @4 μg/ml” value (ABA UFR154; with Example 9 @4 μg/ml) was 1 µg/mL. For the same molecule, the “MIC ATB combined with Example 10 @8 μg/ml” value (ABA UFR154; with Example 10 @8 μg/ml) was 0.5 µg/mL, the “MIC ATB combined with Example 11 @8 μg/ml” value (ABA UFR154; with Example 11 @8 μg/ml) was 1 µg/mL and the “MIC ATB combined with Example 12 @8 μg/ml” value (ABA UFR154; with Example 12 @8 μg/ml) was 1 µg/mL. For the same molecule, the “MIC ATB combined with Example 15 @4 μg/ml” value (ABA UFR154; with Example 15 @4 μg/ml) was 2 µg/mL, the MIC (ECO UFR39) was greater than 128 µg/mL and the MIC (ECO 190317) was 512 µg/mL.
